Laboratory results reported in EP4755881A1 (Wuhan Createrna Science and Technology Co., Ltd., priority 2023, dated 2025).
Like-named read-outs stand apart in the source and are kept apart here. One block for each molecule: values may come before it.

Columns and labels:
[1] = biological target: hLPAR1 (human lysophosphatidic acid receptor 1, Accession No.: NM_001401.4) (Homo sapiens, UniProt Q92633); test: cell-based; settings: FLIPR method, CHO-K1 cells overexpressing hLPAR1
Method in brief: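 Antagonist mode in CHO-K1 cells stably expressing hLPAR1, Fluo-4 loaded; compound preincubated 30 min at room temperature before 1 µM oleoyl-LPA (final) challenge.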

[2] = Pharmacokinetic study in rats (oral gavage and tail vein injection, plasma LC-MS/MS); assay type: in vivo; settings: for half-life: SD
Procedure: Male SPF-grade SD rats (Beijing Vital River Laboratory Animal Technology Co., Ltd.) with a body weight range of 200 to 250 g were used. After acclimatization, the rats were administered a clear solution of the compound of the present disclosure via oral gavage (Po, fasted overnight before administration with free access to water, food returned 4 hours after administration) and tail vein injection (Iv, free access to food and water throughout the administration). Blood samples were collected from the orbital venous plexus/jugular vein of rats at specified time points after administration (blood collection time points for the PO group: 0.167, 0.5, 1, 2, 4, 6, 8, and 24 h; for the IV group: 0.033, 0.167, 1, 2, 4, 6, 8, and 24 h). The concentration of compounds in plasma was detected by LC-MS/MS (AB SCIEX Qtrap4500). Data were analyzed using WinNonlin (version 5.2.1 Pharsight, Mountain View, CA) with a non-compartmental model to obtain PK parameters (including Cmax, C0, Tmax, AUClast, AUCinf, T1/2, etc.).
Table 3: Results of in vivo pharmacokinetic studies of compounds of the present disclosure in rats
The vehicle for the Po group compound was 5% DMSO + 5% ethanol + 60% PEG400 + 30% normal saline; the vehicle for the Iv group compound was 10% ethanol + 20% pure water + 70% PEG400 solution.

[3] = Table 1, read-out: LPAR1 inhibitory activity IC50
[4] = male, rat, SD rats, Iv, 1 mg/kg
[5] = male, rat, SD rats, Iv, 1 mg/kg, read-out: Cmax
[6] = male, rat, SD rats, Po, 1 mg/kg
[7] = male, rat, SD rats, Po, 1 mg/kg, read-out: Cmax
[8] = LPAR1 inhibitory activity IC50, Table 1

Chain of hLPAR1 (human lysophosphatidic acid receptor 1, Accession No.: NM_001401.4) (Q92633 whole entry): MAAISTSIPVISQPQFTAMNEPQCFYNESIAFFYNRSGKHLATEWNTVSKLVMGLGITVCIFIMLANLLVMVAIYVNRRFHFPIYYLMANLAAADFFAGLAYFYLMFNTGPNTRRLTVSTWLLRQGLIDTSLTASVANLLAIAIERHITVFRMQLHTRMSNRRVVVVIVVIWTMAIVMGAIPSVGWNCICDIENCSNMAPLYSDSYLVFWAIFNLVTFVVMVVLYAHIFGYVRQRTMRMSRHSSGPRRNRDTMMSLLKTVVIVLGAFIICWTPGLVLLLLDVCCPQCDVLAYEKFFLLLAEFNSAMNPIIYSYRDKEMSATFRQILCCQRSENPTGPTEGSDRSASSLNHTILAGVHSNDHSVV

SMILES: Cc1nc(-c2nnn(C)c2NC(=O)OC(C)C2CC2(F)F)ccc1C#CC1(CC(=O)O)CC1 (centres unmarked) [compound 081]
IC50 [1, 8]: 0.174 µM

SMILES: Cc1nc(-c2nnn(C)c2CNC(=O)OCc2cc(F)cnc2Cl)ccc1C#CC1(CC(=O)O)CC1 [compound 117]
IC50 [1, 8]: 0.0794 µM

SMILES: Cc1nc(-c2nnn(C)c2COc2nccc(C3CCC3)n2)ccc1C#CC1(CC(=O)O)CC1 [compound 194]
IC50 [1, 3]: 0.0425 µM

SMILES: CCCc1ccnc(OCc2c(-c3ccc(C#CC4(CC(=O)O)CC4)c(C)n3)nnn2C)n1 [compound 217, 2-(1-((2-methyl-6-(1-methyl-5-(((4-propylpyrimidin-2-yl)oxy)methyl)-1H-1,2,3-triazol-4-yl)pyridin-3-yl)ethynyl)cyclopropyl)acetic acid]
IC50 [1, 3]: 0.0266 µM

SMILES: Cc1nc(-c2nnn(C)c2NC(=O)O[C@H](C)CC(C)C)ccc1C#CC1(CC(=O)O)CC1 [compound 220]
IC50 [1, 8]: 0.0155 µM

SMILES: Cc1nc(-c2nnn(C)c2NC(=O)O[C@H](C)c2ccccc2)ccc1C#C[C@@H]1CC(F)(F)C[C@H]1C(=O)O [compound 226]
IC50 [1, 3]: 0.0004 µM

SMILES: Cc1nc(-c2nnn(C)c2NC(=O)O[C@H](C)CC2CC2)ccc1C#CC1(CC(=O)O)CC1 [compound 302]
IC50 [1, 8]: 0.0247 µM

SMILES: Cc1nc(-c2nnn(C)c2NC(=O)O[C@H](C)C(C)C)ccc1C#CC1(CC(=O)O)CC1 [compound 310]
IC50 [1, 8]: 0.114 µM

SMILES: Cc1nc(-c2nnn(C)c2NC(=O)OC(C)C(C)(C)C)ccc1C#CC1(CC(=O)O)CC1 (centres unmarked) [compound 319]
IC50 [1, 8]: 0.124 µM

SMILES: CCC[C@@H](C)OC(=O)Nc1c(-c2ccc(C#CC3(CC(=O)O)CCC3)c(C)n2)nnn1C [compound 325]
IC50 [1, 8]: 0.0403 µM

SMILES: CCC[C@@H](C)OC(=O)Nc1c(C)noc1-c1ccc(C#C[C@@H]2CC[C@H]2C(=O)O)c(C)n1 [compound 339]
IC50 [1, 3]: 0.0026 µM

SMILES: Cc1nc(-c2onc(C)c2NC(=O)O[C@H](C)CC(C)(F)F)ccc1C#C[C@@H]1CCC[C@H]1C(=O)O [compound 343]
IC50 [1, 3]: 0.0057 µM

SMILES: Cc1noc(-c2ccc(C#C[C@@H]3CCC[C@H]3C(=O)O)cn2)c1NC(=O)O[C@H](C)CC(C)(F)F [compound 344]
IC50 [1, 3]: 0.104 µM

SMILES: CCOCc1ccnc(NCc2c(-c3ccc(C#CC4(CC(=O)O)CC4)c(C)n3)nnn2C)n1 [compound 364]
IC50 [1, 3]: 0.203 µM

SMILES: Cc1noc(-c2ccc(C#CC3(CNS(=O)(=O)O)CC3)c(F)c2)c1NC(=O)O[C@H](C)c1ccccc1Cl [compound 460]
IC50 [1, 3]: 0.0118 µM

Now from value to molecule, other results behind:

IC50 [1, 3]: 0.0259 µM
half-life ([2]; male, rat, iv, 1 mg/kg): 7.43 h
half-life ([2]; male, rat, po, 1 mg/kg): 7.96 h
AUC(0-t) [2, 4]: 5000 to 10000 ng·h/mL
Cmax [2, 5]: 800 to 5000 ng/mL
AUC(0-t) [2, 6]: 5000 to 10000 ng·h/mL
Cmax [2, 7]: 800 to 5000 ng/mL
SMILES: CCC(F)(F)[C@@H](C)OC(=O)Nc1c(-c2ccc(C#C[C@@H]3CC[C@H]3C(=O)O)c(C)n2)nnn1C (mixture of isomers) [212-B, trans-2-((6-(5-(((((R)-3,3-difluoropentan-2-yl)oxy)carbonyl)amino)-1-methyl-1H-1,2,3-triazol-4-yl)-2-methylpyridin-3-yl)ethynyl)cyclobutane-1-carboxylic acid]

IC50 [1, 3]: 0.0368 µM
Cmax ([2]; SD rats, Iv, 1 mg/kg): ** (800 ng/mL ≤ Cmax < 5000 ng/mL)
T1/2 ([2]; SD rats, Iv, 1 mg/kg): 8.67 h
half-life ([2]; male, rat, po, 3 mg/kg): 9.6 h
AUC(0-t) ([2]; male, rat, SD rats, Po, 3 mg/kg): 10000 to 20000 ng·h/mL
Cmax ([2]; male, rat, SD rats, Po, 3 mg/kg, read-out: Cmax): 800 to 5000 ng/mL
SMILES: Cc1nc(-c2nnn(C)c2NC(=O)O[C@H](C)CC(C)(F)F)ccc1C#C[C@@H]1CC[C@H]1C(=O)O (mixture of isomers) [213-B, trans-2-((6-(5-(((((R)-4,4-difluoropentan-2-yl)oxy)carbonyl)amino)-1-methyl-1H-1,2,3-triazol-4-yl)-2-methylpyridin-3-yl)ethynyl)cyclobutane-1-carboxylic acid]
AUClast ([2]; SD rats, Iv, 1 mg/kg): *** (5000 ng/mL*hr ≤ AUClast < 10000 ng/mL*hr)

IC50 [1, 3]: 0.0114 µM
half-life ([2]; male, rat, iv, 1 mg/kg): 3.89 h
half-life ([2]; male, rat, po, 1 mg/kg): 4.24 h
AUC(0-t) [2, 4]: 5000 to 10000 ng·h/mL
Cmax [2, 5]: 800 to 5000 ng/mL
AUC(0-t) [2, 6]: 5000 to 10000 ng·h/mL
Cmax [2, 7]: 800 to 5000 ng/mL
SMILES: CCC(F)(F)[C@@H](C)OC(=O)Nc1c(-c2ccc(C#C[C@@H]3CCC[C@H]3C(=O)O)c(C)n2)nnn1C (mixture of isomers) [219-B, trans-2-((6-(5-(((((R)-3,3-difluoropentan-2-yl)oxy)carbonyl)amino)-1-methyl-1H-1,2,3-triazol-4-yl)-2-methylpyridin-3-yl)ethynyl)cyclopentane-1-carboxylic acid]

IC50 [1, 3]: 0.0192 µM
half-life ([2]; male, rat, iv, 1 mg/kg): 5.05 h
half-life ([2]; male, rat, po, 1 mg/kg): 4.07 h
AUC(0-t) [2, 4]: 5000 to 10000 ng·h/mL
Cmax [2, 5]: 800 to 5000 ng/mL
AUC(0-t) [2, 6]: 5000 to 10000 ng·h/mL
Cmax [2, 7]: 800 to 5000 ng/mL
SMILES: Cc1nc(-c2nnn(C)c2NC(=O)O[C@H](C)CC(C)(C)F)ccc1C#C[C@@H]1CCC[C@H]1C(=O)O (mixture of isomers) [244-B, trans-2-((6-(5-(((((R)-4-fluoro-4-methylpentan-2-yl)oxy)carbonyl)amino)-1-methyl-1H-1,2,3-triazol-4-yl)-2-methylpyridin-3-yl)ethynyl)cyclopentane-1-carboxylic acid]

IC50 [1, 3]: 0.0791 µM
SMILES: Cc1nc(-c2nnn(C)c2COC(=O)N(C)CC2CC2C)ccc1C#CC1(CC(=O)O)CC1 (centres unmarked) [compound 073]

IC50 [1, 3]: 0.157 µM
SMILES: CCC(F)(F)CN(C)C(=O)OCc1c(-c2ccc(C#CC3(CC(=O)O)CC3)c(C)n2)nnn1C [compound 082]

IC50 [1, 3]: 0.0301 µM
SMILES: Cc1nc(-c2nnn(C)c2COC(=O)N(C)CC2CCC(F)(F)C2)ccc1C#CC1(CC(=O)O)CC1 (centres unmarked) [compound 094]

IC50 [1, 3]: 0.0399 µM
SMILES: Cc1nc(-c2nnn(C)c2COC(=O)N(C)CC2CCCC2(F)F)ccc1C#CC1(CC(=O)O)CC1 (centres unmarked) [compound 095]

IC50 [1, 3]: 0.0443 µM
SMILES: CCCCN(C)C(=O)OCc1c(-c2ccc(C#CC3(CC(=O)O)CC3)c(CC)n2)nnn1C [compound 100]

IC50 [1, 3]: 0.0127 µM
SMILES: CCC(F)(F)[C@@H](C)OC(=O)Nc1c(-c2ccc(C#CC3(CC(=O)O)CC3)c(Cl)n2)nnn1C [compound 209, (R)-2-(1-((2-chloro-6-(5-((((3,3-difluoropentan-2-yl)oxy)carbonyl)amino)-1-methyl-1H-1,2,3-triazol-4-yl)pyridin-3-yl)ethynyl)cyclopropyl)acetic acid]

IC50 [1, 3]: 0.0138 µM
SMILES: Cc1nc(-c2nnn(C)c2COC(=O)N(C)C(C)C2CCC2)ccc1C#CC1(CC(=O)O)CC1 (centres unmarked) [compound 211, 2-(1-((6-(5-((((1-cyclobutylethyl)(methyl)carbamoyl)oxy)methyl)-1-methyl-1H-1,2,3-triazol-4-yl)-2-methylpyridin-3-yl)ethynyl)cyclopropyl)acetic acid]

IC50 [1, 3]: 0.0902 µM
SMILES: CN(CCCCF)C(=O)OCc1c(-c2ccc(C#CC3(CC(=O)O)CC3)c(C3CC3)n2)nnn1C [compound 218, 2-(1-((2-cyclopropyl-6-(5-((((4-fluorobutyl)(methyl)carbamoyl)oxy)methyl)-1-methyl-1H-1,2,3-triazol-4-yl)pyridin-3-yl)ethynyl)cyclopropyl)acetic acid]

IC50 [1, 3]: 0.0599 µM
SMILES: CCc1nc(-c2nnn(C)c2COC(=O)N(C)CCCCF)ccc1C#CC1(CC(=O)O)CC1 [compound 230]

IC50 [1, 3]: 0.0102 µM
SMILES: Cc1nc(-c2nnn(C)c2NC(=O)O[C@H](C)CC(C)(F)F)ccc1C#C[C@@H]1CC(F)(F)C[C@H]1C(=O)O [compound 247]

IC50 [1, 3]: 0.0473 µM
SMILES: CCC(F)(F)C[C@@H](C)OC(=O)Nc1c(-c2ccc(C#CC3(CC(=O)O)CC3)c(C)n2)nnn1C [compound 264]

IC50 [1, 3]: 0.0149 µM
SMILES: Cc1nc(-c2nnn(C)c2NC(=O)O[C@H](C)CC(C)(C)F)ccc1C#C[C@@H]1CC(F)(F)C[C@H]1C(=O)O [compound 273]

IC50 [1, 3]: 0.151 µM
SMILES: Cc1nc(-c2nnn(C)c2NC(=O)O[C@H](C)C(F)(F)C(C)C)ccc1C#C[C@@H]1CC[C@H]1C(=O)O [compound 307]
